From patent publication US20060247227A1, “Substituted piperidines as histamine h3 receptor ligands” (priority 2003, published 2006) come the findings set out here.

The structures appear in SMILES notation. Where a name gives a salt, the structure may show the parent alone.

One data set has as its target T1, histamine H3 receptor (Homo sapiens, UniProt Q9Y5N1).
T1 construct: expressed in transfected cells; host or cells: CHO K1 cells carrying pSwitch, transfected with pGeneH3 and induced with mifepristone; clone 3H3; membranes
The experiment in a line: Histamine H3 functional antagonist assay ([35S]GTPγS, SPA, membranes of CHO K1 cells expressing the receptor). It counts as biochemical. The note with it: histamine-stimulated GTPγS binding, membranes with human H3.

T1 sequence (Q9Y5N1 whole entry): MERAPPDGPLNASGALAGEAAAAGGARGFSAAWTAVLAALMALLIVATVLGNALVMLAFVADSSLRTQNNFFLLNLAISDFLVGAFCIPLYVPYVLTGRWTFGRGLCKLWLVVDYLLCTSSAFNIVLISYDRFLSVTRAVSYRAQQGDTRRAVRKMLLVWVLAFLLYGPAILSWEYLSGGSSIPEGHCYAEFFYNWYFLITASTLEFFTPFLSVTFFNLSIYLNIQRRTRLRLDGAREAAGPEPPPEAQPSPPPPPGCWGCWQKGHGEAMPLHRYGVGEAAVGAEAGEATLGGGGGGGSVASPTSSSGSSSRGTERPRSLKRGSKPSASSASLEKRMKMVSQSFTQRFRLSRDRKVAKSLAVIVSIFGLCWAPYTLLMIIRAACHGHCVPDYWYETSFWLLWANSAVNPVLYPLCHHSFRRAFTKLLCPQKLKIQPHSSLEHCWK

On to `CNC(=O)c1ccc(N2CCC(OC3CCN(C4CCC4)CC3)CC2)cn1` [Example E38A, 5-{4-[(1-Cyclobutyl-4-piperidinyl)oxy]-1-piperidinyl}-N-methyl-2-pyridinecarboxamide], for which the melting point was 109.7 °C.
As for `Cc1noc(-c2ccc(N3CCC(OC4CCN(C(C)C)CC4)CC3)cc2F)n1` [Example E113, 1-[3-Fluoro-4-(3-methyl-1,2,4-oxadiazol-5-yl)phenyl]-4-{[1-(1-methylethyl)-4-piperidinyl]oxy}piperidine hydrochloride], the Ki at histamine H3 receptor is at most 1 nM.
